Test results as given in PubChem BioAssay AID1259408 (Genetic Toxicology Data Bank (GENE-TOX), 2018).
The source made the active and inactive calls. No rule for the calls is given here.

Test system: GENE-TOX genotoxicity assays, various organisms and cells
Test: GENE-TOX mutagenicity studies
Conditions: for call: Assay Type: In vivo carcinogenicity studies
[1] = Species/Cell Type: Nonhuman, Assay Code: CCG+, Evaluation Type: Evaluation A (Pre-1980)
[2] = Species/Cell Type: Salmonella typhimurium (one or more of the five standard strains: TA98, TA100, TA1535, TA1537, and TA1538), Assay Type: Histidine reverse gene mutation, Ames assay, Assay Code: SALT, Evaluation Type: Evaluation A (Pre-1980)
[3] = Species/Cell Type: Nonhuman, Assay Type: Sister-chromatid exchange (SCE) in vitro, Assay Code: SC2+D, Dose Response: With dose response, Evaluation Type: Evaluation B (Post-1980)
[4] = Species/Cell Type: Salmonella typhimurium (one or more of the five standard strains: TA98, TA100, TA1535, TA1537, and TA1538), Assay Type: Histidine reverse gene mutation, Ames assay, Assay Code: SAL+, Evaluation Type: Evaluation A (Pre-1980)
[5] = Species/Cell Type: Drosophila melanogaster, Assay Type: Sex-linked recessive lethal gene mutation, Assay Code: SRL+, Evaluation Type: Evaluation A (Pre-1980)
[6] = Species/Cell Type: Saccharomyces cerevisiae, Assay Type: Mitotic recombination or gene conversion, Assay Code: YEC+, Evaluation Type: Evaluation A (Pre-1980)
[7] = Species/Cell Type: Neurospora crassa, Assay Type: Forward gene mutation, Assay Code: NEF+, Evaluation Type: Evaluation A (Pre-1980)

## Nc1ccc(N=Nc2ccc(-c3ccc(N=Nc4c(S(=O)(=O)O)cc5c(c4N)C(=O)/C(=N/Nc4ccccc4)C(S(=O)(=O)O)=C5)cc3)cc2)c(N)c1
Species/Cell Type: Drosophila melanogaster, Assay Type: Sex-linked recessive lethal gene mutation, Assay Code: SRL-, Evaluation Type: Evaluation A (Pre-1980)
  mutagenic call: inactive; negative
[1]
  call: active; positive

## Nc1ccc(-c2nc(N(CCO)CCO)c3ccccc3n2)s1
[2]
  mutagenic call: no conclusion

## CC(=O)C=O
[3]
  mutagenic call: active; positive

## C=C(Cl)CCl
[4]
  mutagenic call: active; positive

## CC1CC(C)CN(N=O)C1 (stereo not given)
[5]
  mutagenic call: active; positive
Species/Cell Type: Saccharomyces cerevisiae, Assay Type: Forward gene mutation, Assay Code: YEF+*, Activation: With metabolic activation, Evaluation Type: Evaluation A (Pre-1980)
  mutagenic call: active; positive
Species/Cell Type: Saccharomyces cerevisiae, Assay Type: Reverse gene mutation, Assay Code: YER+*, Activation: With metabolic activation, Evaluation Type: Evaluation A (Pre-1980)
  mutagenic call: active; positive
[2]
  mutagenic call: no conclusion

## CC(C)N(C(=O)CCl)c1ccccc1
[6]
  mutagenic call: active; positive

## CCN(CC)CCn1nc2c3c(c(CO)ccc31)Sc1ccccc1-2
Species/Cell Type: Drosophila melanogaster, Assay Type: Sex-linked recessive lethal gene mutation, Assay Code: SRLT, Evaluation Type: Evaluation A (Pre-1980)
  mutagenic call: no conclusion
Species/Cell Type: Mouse lymphoma (L5178Y) cells, Assay Type: Forward gene mutation at the thymidine kinase (TK) locus, chromosome aberrations, Assay Code: L51+, Evaluation Type: Evaluation A (Pre-1980)
  mutagenic call: active; positive
[7]
  mutagenic call: active; positive

## CC1=C[C@H]2[C@@]3(O)[C@H](C)[C@@H](O)[C@]4(O)[C@H]([C@@H]3C=C(CO)C[C@]2(O)C1=O)C4(C)C
Species/Cell Type: Escherichia coli polA (W3119 vs P3478), Assay Type: Rec-assay, DNA effects (bacterial DNA repair), Assay Code: RE1T, Evaluation Type: Evaluation A (Pre-1980)
  mutagenic call: no conclusion
Species/Cell Type: Saccharomyces cerevisiae, Assay Type: Mitotic recombination or gene conversion, Assay Code: YEH-, Evaluation Type: Evaluation A (Pre-1980)
  mutagenic call: inactive; negative

## CC(C)N(C(=O)SC/C(Cl)=C/Cl)C(C)C
Species/Cell Type: Nonhuman, Assay Type: Sister-chromatid exchange (SCE) in vitro, Assay Code: SC2+D*, Activation: With metabolic activation, Dose Response: With dose response, Evaluation Type: Evaluation B (Post-1980)
  mutagenic call: active; positive
Species/Cell Type: Salmonella typhimurium (one or more of the five standard strains: TA98, TA100, TA1535, TA1537, and TA1538), Assay Type: Histidine reverse gene mutation, Ames assay, Assay Code: SAL+*, Activation: With metabolic activation, Evaluation Type: Evaluation A (Pre-1980)
  mutagenic call: active; positive

## CC(C)C(O)(C(=O)OCC1=CCN2CC[C@H](O)[C@H]12)[C@H](C)O (stereo not given in full)
[5]
  mutagenic call: active; positive

## CC(=O)ONC(=O)c1ccc2ccccc2c1
[3]
  mutagenic call: active; positive

## O.O.O.O.O.O.[Cl-].[Cl-].[Cl-].[Fe+3]
Species/Cell Type: Nonhuman, Assay Type: Sister-chromatid exchange (SCE) in vitro, Assay Code: SC2-, Evaluation Type: Evaluation B (Post-1980)
  mutagenic call: inactive; negative

## COc1cc2c(c3oc(=O)c4c(c13)CCC4=O)[C@@H]1C=CO[C@@H]1O2
Species/Cell Type: Bacillus subtilis (H17 vs M45), Assay Type: Rec-assay, spot test, DNA effects (bacterial DNA repair), Assay Code: REW+, Evaluation Type: Evaluation A (Pre-1980)
  mutagenic call: active; positive
Species/Cell Type: Chinese hamster lung (V79) cells, Assay Type: Forward gene mutation at the HPRT or ouabain locus, Assay Code: V79+, Evaluation Type: Evaluation A (Pre-1980)
  mutagenic call: active; positive
[5]
  mutagenic call: active; positive
Species/Cell Type: Escherichia coli polA (W3119 vs P3478), Assay Type: Rec-assay, DNA effects (bacterial DNA repair), Assay Code: RE1+, Evaluation Type: Evaluation A (Pre-1980)
  mutagenic call: active; positive
Species/Cell Type: Human diploid fibroblasts, Assay Type: Unscheduled DNA synthesis (UDS) in vitro, DNA effects, Assay Code: UDH+D*, Activation: With metabolic activation, Dose Response: With dose response, Evaluation Type: Evaluation A (Pre-1980)
  mutagenic call: active; positive
Species/Cell Type: Human lymphocytes, Assay Type: Sister-chromatid exchange (SCE) in vitro, Assay Code: SCL+D, Dose Response: With dose response, Evaluation Type: Evaluation A (Pre-1980)
  mutagenic call: active; positive
Species/Cell Type: Human lymphocytes, Assay Type: Sister-chromatid exchange (SCE) in vitro, Assay Code: SCL+D, Dose Response: With dose response, Evaluation Type: Evaluation B (Post-1980)
  mutagenic call: active; positive
Species/Cell Type: Human, Assay Type: Sister-chromatid exchange (SCE) in vitro, Assay Code: SC1+D, Dose Response: With dose response, Evaluation Type: Evaluation A (Pre-1980)
  mutagenic call: active; positive
Species/Cell Type: Human, Assay Type: Sister-chromatid exchange (SCE) in vitro, Assay Code: SC1+D, Dose Response: With dose response, Evaluation Type: Evaluation B (Post-1980)
  mutagenic call: active; positive
Species/Cell Type: Mammalian germ cells, Sex: Male, Assay Type: Chromosome aberrations in vivo, Assay Code: CY9T, Evaluation Type: Evaluation A (Pre-1980)
  mutagenic call: no conclusion
Species/Cell Type: Mammalian polychromatic erythrocytes, Assay Type: Micronucleus test, chromosome aberrations, Assay Code: MNT+, Evaluation Type: Evaluation A (Pre-1980)
  mutagenic call: active; positive
Species/Cell Type: Mouse, Sex: Male, Assay Type: Sperm morphology, Assay Code: SPI-, Evaluation Type: Evaluation A (Pre-1980)
  mutagenic call: inactive; negative
[7]
  mutagenic call: active; positive
Species/Cell Type: Nonhuman, Assay Type: Chromosome aberrations in vitro, Assay Code: CY&+, Evaluation Type: Evaluation A (Pre-1980)
  mutagenic call: active; positive
[1]
  call: active; positive
Species/Cell Type: Nonhuman, Assay Type: Sister-chromatid exchange (SCE) in vitro, Assay Code: SC2+D, Dose Response: With dose response, Evaluation Type: Evaluation A (Pre-1980)
  mutagenic call: active; positive
[3]
  mutagenic call: active; positive
Species/Cell Type: Nonhuman, Assay Type: Sister-chromatid exchange (SCE) in vivo, Assay Code: SC3+, Evaluation Type: Evaluation A (Pre-1980)
  mutagenic call: active; positive
Species/Cell Type: Nonhuman, Assay Type: Sister-chromatid exchange (SCE) in vivo, Assay Code: SC3+, Evaluation Type: Evaluation B (Post-1980)
  mutagenic call: active; positive
Species/Cell Type: Rat primary hepatocytes, Assay Type: Unscheduled DNA synthesis (UDS) in vitro, DNA effects, Assay Code: UDP+, Evaluation Type: Evaluation A (Pre-1980)
  mutagenic call: active; positive
Species/Cell Type: Rat, Sex: Male, Assay Type: Sperm morphology, Assay Code: SPA-, Evaluation Type: Evaluation A (Pre-1980)
  mutagenic call: inactive; negative
[6]
  mutagenic call: active; positive
Species/Cell Type: Saccharomyces cerevisiae, Assay Type: Mitotic recombination or gene conversion, Assay Code: YEH+, Evaluation Type: Evaluation A (Pre-1980)
  mutagenic call: active; positive
[4]
  mutagenic call: active; positive
Species/Cell Type: Salmonella typhimurium, Assay Type: Forward and reverse gene mutation, body fluid assay, Assay Code: BFU+, Evaluation Type: Evaluation A (Pre-1980)
  mutagenic call: active; positive
Species/Cell Type: Salmonella typhimurium, Assay Type: Forward and reverse gene mutation, host-mediated assay, Assay Code: HMA+, Evaluation Type: Evaluation A (Pre-1980)
  mutagenic call: active; positive
Species/Cell Type: Syrian hamster embryo (SA7/SHE) cells, Assay Type: Cell transformation, viral enhanced, Assay Code: CT7+, Evaluation Type: Evaluation A (Pre-1980)
  mutagenic call: active; positive
Species/Cell Type: Syrian hamster embryo (SHE) cells, Assay Type: Cell transformation, clonal assay, Assay Code: CTC+D, Dose Response: With dose response, Evaluation Type: Evaluation A (Pre-1980)
  mutagenic call: active; positive
Species/Cell Type: Syrian hamster embryo (SHE) cells, Assay Type: Cell transformation, focus assay, Assay Code: CTF+, Evaluation Type: Evaluation A (Pre-1980)
  mutagenic call: active; positive

## CC(=O)Nc1ccc(C(=O)CCl)cc1
Species/Cell Type: Nonhuman, Assay Code: CCG-, Evaluation Type: Evaluation A (Pre-1980)
  call: inactive; negative

## COc1cc(Cl)c(OC)cc1Cl
Species/Cell Type: Aspergillus nidulans, Assay Type: Aneuploidy, chromosome aberrations, Assay Code: ASN+, Evaluation Type: Evaluation A (Pre-1980)
  mutagenic call: active; positive
Species/Cell Type: Aspergillus nidulans, Assay Type: Mitotic recombination, Assay Code: ASG+, Evaluation Type: Evaluation A (Pre-1980)
  mutagenic call: active; positive

## CN(CCCC(=O)c1cccnc1)N=O
Species/Cell Type: Rat primary hepatocytes, Assay Type: Unscheduled DNA synthesis (UDS) in vitro, DNA effects, Assay Code: UDP+D, Dose Response: With dose response, Evaluation Type: Evaluation A (Pre-1980)
  mutagenic call: active; positive

## CCC(C)=O
Species/Cell Type: Bacillus subtilis (H17 vs M45), Assay Type: Rec-assay, spot test, DNA effects (bacterial DNA repair), Assay Code: REWT, Evaluation Type: Evaluation A (Pre-1980)
  mutagenic call: no conclusion
Species/Cell Type: Mammalian polychromatic erythrocytes, Assay Type: Micronucleus test, chromosome aberrations, Assay Code: MNT-, Evaluation Type: Evaluation B (Post-1980)
  mutagenic call: inactive; negative
